In patent publication US10292968B2, “Substituted heterocycles as bromodomain inhibitors” (Zenith Epigenetics Ltd., priority 2014, dated 2019):
Counter-ions that a name gives are not always drawn.

Experiments:
[1] = biological target: T1, Brd4 bromodomain 1 (BRD4(1)) (Homo sapiens, UniProt O60885); assay: AlphaScreen inhibition of tetra-acetylated histone H4 binding to BRD4(1); details: BRD4(1) at 20 nM, tetra-acetylated histone H4 peptide, 30 min incubation; for IC50: read-out: Alpha Screen BRD4(1)
T1 construct: N-terminally His-tagged bromodomains (BRD4(1) at 20 nM and BRD4(2) at 100 nM); made in house; host or cells: E. coli BL21(DE3)
Method: (§1) Proteins were cloned and overexpressed with a N-terminal 6×His tag, then purified by nickel affinity followed by size exclusion chromatography. Briefly, E. coli BL21(DE3) cells were transformed with a recombinant expression vector encoding N-terminally Nickel affinity tagged bromodomains from Brd2, Brd3, Brd4. Cell cultures were incubated at 37° C. with shaking to the appropriate density and induced overnight with IPTG. The supernatant of lysed cells was loaded onto Ni-IDA column for purification. Eluted protein was pooled, concentrated and further purified by size exclusion chromatography. Fractions representing monomeric protein were pooled, concentrated, aliquoted, and frozen at −80° C. for use in subsequent experiments.
(§2) Binding of tetra-acetylated histone H4 peptide (Millipore) and BET bromodomains was confirmed by Amplified Luminescent Proximity Homogenous Assay (AlphaScreen). N-terminally His-tagged bromodomains (BRD4(1) at 20 nM and BRD4(2) at 100 nM) and biotinylated tetra-acetylated histone H4 (10-25 nM) were incubated in the presence of nickel chelate acceptor beads and streptavidin donor beads (PerkinAlmer, 6760000K) added to a final concentration of 2 μg/ml under green light in a white 96 well microtiter plate (Greiner). For inhibition assays, serially diluted compounds were added to the reaction mixtures in a 0.1% final concentrations of DMSO. Final buffer concentrations were 50 mM HEPES, 100 mM NaCl and 0.1% BSA buffer, pH 7.4 and optimized to 30 min incubation time. Assay plates were read at 570 nm on a Synergy H4 Plate Reader (Biotek). IC50 values were determined from a dose response curve.

[2] = biological target: T2, Brd 4 bromodomain 2 (BRD4(2)) (Homo sapiens, UniProt O60885); assay: AlphaScreen inhibition of tetra-acetylated histone H4 binding to BRD4(2); details: BRD4(2) at 100 nM, tetra-acetylated histone H4 peptide, 30 min incubation; for IC50: read-out: Alpha Screen BRD4(2)
T2 construct: N-terminally His-tagged bromodomains (BRD4(1) at 20 nM and BRD4(2) at 100 nM); made in house; host or cells: E. coli BL21(DE3)
Method: as §1, §2

| SMILES | IC50 [1] | IC50 [2] | Alpha Screen BRD4(1) [1] | Alpha Screen BRD4(2) [2] |
| --- | --- | --- | --- | --- |
| CNC(=O)c1cccc(-c2[nH]c(-c3ccccc3)nc2-c2n[nH]c(=O)n2C2CC2)c1 [Example 3, 3-(4-(4-cyclopropyl-5-oxo-4,5-dihydro-1H-1,2,4-triazol-3-yl)-2-phenyl-1H-imidazol-5-yl)-N-methyl benzamide hydrochloride] | 3 to 30 µM | 3 to 30 µM |  |  |
| O=C1CCc2ccc(-c3[nH]c(-c4ccccc4)nc3-c3n[nH]c(=O)n3C3CC3)cc21 [Example 5, 4-cyclopropyl-3-(5-(3-oxo-2,3-dihydro-1H-inden-5-yl)-2-phenyl-1H-imidazol-4-yl)-1H-1,2,4-triazol-5(4H)-one hydrochloride] |  |  | Not Active | Not Active |
| CC(=O)c1ccc(C)c(-c2[nH]c(-c3ccccc3)nc2-c2n[nH]c(=O)n2C2CC2)c1 [Example 11, 3-(5-(5-acetyl-2-methylphenyl)-2-phenyl-1H-imidazol-4-yl)-4-cyclopropyl-1H-1,2,4-triazol-5(4H)-one hydrochloride] | 3 to 30 µM |  |  | Not Active |
| CC(=O)c1cncc(-c2[nH]c(-c3ccccc3)nc2-c2n[nH]c(=O)n2C2CC2)c1 [Example 12, 3-(5-(5-acetylpyridin-3-yl)-2-phenyl-1H-imidazol-4-yl)-4-cyclopropyl-1H-1,2,4-triazol-5(4H)-one formate] | 3 to 30 µM | 0.3 to 3 µM |  |  |
| Cc1nn(C)c2ccc(-c3[nH]c(-c4ccccc4)nc3-c3n[nH]c(=O)n3C3CC3)cc12 [Example 15, 4-cyclopropyl-3-(5-(1,3-dimethyl-1H-indazol-5-yl)-2-phenyl-1H-imidazol-4-yl)-1H-1,2,4-triazol-5(4H)-one hydrochloride] | 0.3 to 3 µM | 3 to 30 µM |  |  |
| Cc1noc2ccc(-c3[nH]c(-c4ccccc4)nc3-c3n[nH]c(=O)n3C3CC3)cc12 [Example 16, 4-cyclopropyl-3-(5-(3-methylbenzo[d]isoxazol-5-yl)-2-phenyl-1H-imidazol-4-yl)-1H-1,2,4-triazol-5(4H)-one] | ≤ 0.3 µM | 0.3 to 3 µM |  |  |
| Cn1ncc2ccc(-c3[nH]c(-c4ccccc4)nc3-c3n[nH]c(=O)n3CC3CC3)cc21 [Example 17, 4-(cyclopropylmethyl)-3-(5-(1-methyl-1H-indazol-6-yl)-2-phenyl-1H-imidazol-4-yl)-1H-1,2,4-triazol-5(4H)-one] |  |  | Not Active | Not Active |
| Cn1ncc2ccc(-c3[nH]c(-c4ccccc4)nc3-c3n[nH]c(=O)n3CC(C)(C)C)cc21 [Example 20, 3-(5-(1-methyl-1H-indazol-6-yl)-2-phenyl-1H-imidazol-4-yl)-4-neopentyl-1H-1,2,4-triazol-5(4H)-one] | 0.3 to 3 µM | 3 to 30 µM |  |  |
| Cn1ncc2ccc(-c3[nH]c(-c4ccccc4)nc3-c3n[nH]c(=O)n3C3CCCC3)cc21 [Example 21, 4-cyclopentyl-3-(5-(1-methyl-1H-indazol-6-yl)-2-phenyl-1H-imidazol-4-yl)-1H-1,2,4-triazol-5(4H)-one] | 3 to 30 µM |  |  | Not Active |
| CC(C)n1c(-c2nc(-c3ccccc3)[nH]c2-c2ccc3cnn(C)c3c2)n[nH]c1=O [Example 22, 4-isopropyl-3-(5-(1-methyl-1H-indazol-6-yl)-2-phenyl-1H-imidazol-4-yl)-1H-1,2,4-triazol-5(4H)-one] | 3 to 30 µM | 3 to 30 µM |  |  |
| Cn1ncc2ccc(-c3[nH]c(-c4ccncc4)nc3-c3n[nH]c(=O)n3C3CC3)cc21 [Example 23, 4-cyclopropyl-3-(5-(1-methyl-1H-indazol-6-yl)-2-(pyridin-4-yl)-1H-imidazol-4-yl)-1H-1,2,4-triazol-5(4H)-one dihydrochloride] | ≤ 0.3 µM | 3 to 30 µM |  |  |
| Cn1ncc2ccc(-c3[nH]c(-c4cccnc4)nc3-c3n[nH]c(=O)n3C3CC3)cc21 [Example 24, 4-cyclopropyl-3-(5-(1-methyl-1H-indazol-6-yl)-2-(pyridin-3-yl)-1H-imidazol-4-yl)-1H-1,2,4-triazol-5(4H)-one dihydrochloride] | 3 to 30 µM | 3 to 30 µM |  |  |
